Experimental data reported in patent US7569562B2, “N-substituted heterocyclic sulfonamides” (Elan Pharmaceuticals, Inc., priority 2005, dated 2009).

Test system: gamma secretase cleavage of NotchΔE (ZEDN1)
Experiment: Notch Signaling Assay for Selective Inhibitors of Gamma Secretase (reporter gene based)
Assay type: cell-based
Settings: Rattus norvegicus; assay not given; it follows the Notch signaling (4xwtCBF1 Luciferase reporter) method
Description: Notch Signaling Assay for Selective Inhibitors of Gamma Secretase.
Due to the importance of Notch signaling in cell fate determination, and tissue differentiation during both development and in the adult, inhibition of Notch signaling by gamma secretase inhibitors is postulated to be a limiting factor in their therapeutic utility. In order to identify selective gamma secretase inhibitors, we have employed a reporter gene based Notch signaling assay using a constitutively active rat Notch1 construct (ZEDN1) provided by Dr Gerry Weinmaster, who is at the University of California at Los Angeles (UCLA) as described in Shawber, C., D. Nofziger, J. J. Hsieh, C. Lindsell, O. Bogler, D. Hayward and G. Weinmaster (1996). “Notch signaling inhibits muscle cell differentiation through a CBF1-independent pathway.” Development 122(12): 3765-73 in combination with the CBF1 repressible Luciferase reporter gene 4xwtCBF1Luc (Hsieh, J. J., T. Henkel, P. Salmon, E. Robey, M. G. Peterson and S. D. Hayward (1996). “Truncated mammalian Notch1 activates CBF1/RBPJk-repressed genes by a mechanism resembling that of Epstein-Barr virus EBNA2.” Mol Cell Biol 16(3): 952-9).
When 4xwtCBF1 Luciferase is co-transfected with NotchΔE (ZEDN1), γ-secretase cleavage of NotchΔE releases the Notch intracellular domain (NICD), which translocates to the nucleus and de-represses CBF1 mediated transcriptional repression, leading to transcription of the Luciferase reporter gene. Luciferase activity is easily assayed in cell extracts using commercially available kits. The activity of the reporter gene is directly correlated with gamma secretase cleavage of NotchΔE, and as such, a reduction in Luciferase activity provides a convenient measure of inhibition of gamma secretase cleavage of NotchΔE. A comparison of the IC50 values of compounds for inhibition of Notch signaling versus inhibition of β-amyloid production in 293sw cells is employed to guide in the selection of compounds that have the desired property of potent inhibition of β-amyloid synthesis with minimal inhibition of Notch Signaling.

| SMILES | IC50 |
| --- | --- |
| Cn1nnc2cc(CN([C@@H]3CCCCNC3=O)S(=O)(=O)c3ccc(Cl)s3)ccc21 [5-Chloro-thiophene-2-sulfonic acid (1-methyl-1H-benzotriazol-5-ylmethyl)-[(R)-2-oxo-azepan-3-yl]-amide] | 100 to 1000 nM |
| O=C1NCCCC[C@H]1N(Cc1ccc(Br)cc1)S(=O)(=O)c1ccc(Cl)s1 [5-Chloro-thiophene-2-sulfonic acid (4-bromo-benzyl)-[(R)-2-oxo-azepan-3-yl]-amide] | 100 to 1000 nM |
| Cc1ccc(S(=O)(=O)N(Cc2ccc(Br)cc2)[C@@H]2CCCCNC2=O)s1 [5-Methyl-thiophene-2-sulfonic acid (4-bromo-benzyl)-[(R)-2-oxo-azepan-3-yl]-amide] | > 1000 nM |
| Cn1nnc2cc(CN([C@@H]3CCCCNC3=O)S(=O)(=O)c3ccc(Cl)nc3)ccc21 [6-Chloro-pyridine-3-sulfonic acid (1-methyl-1H-benzotriazol-5-ylmethyl)-[(R)-2-oxo-azepan-3-yl]-amide] | 1 to 100 nM |

Now from value to compound:

| IC50 | SMILES |
| --- | --- |
| 1 to 100 nM | CC(=Cc1ccccc1)CN([C@@H]1CCCCNC1=O)S(=O)(=O)c1ccc(Cl)nc1 [6-Chloro-pyridine-3-sulfonic acid (2-methyl-3-phenyl-allyl)-[(R)-2-oxo-azepan-3-yl]-amide] |
| 1 to 100 nM | O=C1NCCCC[C@H]1N(CC=Cc1cccnc1)S(=O)(=O)c1ccc(Cl)nc1 [6-Chloro-pyridine-3-sulfonic acid [(R)-2-oxo-azepan-3-yl]-(3-pyridin-3-yl-allyl)-amide] |
| > 1000 nM | O=C1NCCCC[C@H]1N(CC1CCCCO1)S(=O)(=O)c1ccc(Cl)nc1 (stereo partly drawn) [6-Chloro-pyridine-3-sulfonic acid [(R)-2-oxo-azepan-3-yl]-(tetrahydro-pyran-2-ylmethyl)-amide] |
| 100 to 1000 nM | O=C1NCCCC[C@H]1N(Cc1ccc(Br)cc1)S(=O)(=O)c1cccnc1 [Pyridine-3-sulfonic acid (4-bromo-benzyl)-[(R)-2-oxo-azepan-3-yl]-amide] |
